In US7605149B1, “Modulation of the phospholipase A2 pathway as a therapeutic” (University of South Florida, priority 1998, dated 2009):
Like-named read-outs stand apart in the source and are kept apart here.

Tests used:
[1] = test system: rat aortae (aortic rings); assay: Vessel bath vasoactivity assay: ET-1-induced vasoconstriction of rat aortic rings and its enhancement by Aβ or sPLA2; assay type: cell-based; details: for effect on sPLA2-induced vasoconstriction: inactivation of sPLA2
Experimental: Vessel experiments. Freshly dissected aortae were prepared from normal male Sprague-Dawley rats (7-8 months old, purchased from Zivic Miller, Zelienople, Pa.) as previously described by Paris et al, Exp Neurol 1998 and Exp Neurol 1999. Rat aortae were segmented into rings and suspended in Kreb's buffer on hooks connected to a tensiometer linked to a MacLab system. Aortic rings were equilibrated for 2 hours, in 7 mL tissue baths containing Kreb's buffer oxygenated with 95% O2: 5% CO2, and thermoregulated to 37° C. A baseline tension of 2 g was applied to each ring, and the first set of aortic rings was pretreated with the various compounds named above either alone or in combination with Aβ peptides. After 5 minutes of incubation in the presence or absence of Aβ, this first set of vessels was subjected to a dose range of ET-1 (from 1 nM to 5 nM). A second set of vessels was treated with 1 μM of Aβ peptides prior to the addition of ET-1. A third set (control) received only ET-1 treatment. Each ET-1 dose was added only after the constriction response to the previous dose had reached a plateau. In all cases the means ±1 standard error (SE) of the percentage vasoconstriction increase over baseline were determined for each dose of ET-1 used.
(§1) Statistical analysis. Analysis of variance (ANOVA) was used to analyze the data, with post-hoc comparisons of means carried out where appropriate by Sheffe's or Bonferonni's methods. As previously described (Paris et al., Neurosci Lett, 1998), a significant interactive term by ANOVA was taken as evidence that both drug x and Aβ are modulating a common signal transduction pathway. […] Levene's test for equality of variance followed by t-test for independent samples was used for single mean comparisons. Alpha levels were set at 0.05 for all analyses. Analyses were performed using SPSS for Windows release 9.5.

[2] = test system: rat aortae (aortic rings); details: cited from earlier work
[3] = test system: intact rat aortae (aortic rings); assay: [3H]AA release in intact rat aortae; assay type: cell-based
Experimental: Measurement of [^3H]AA release in intact rat aortae. Aortic rings (1.5 mm long) were placed in 1 mL of physiological saline solution (PSS, containing 130 mM NaCl, 5 mM KCl, 1.5 mM CaCl2, 1.2 mM MgCl2, 10 mM HEPES, and 10 mM glucose adjusted to pH 7.2 with NaOH) and incubated with 2.5 μCi of [^3H]AA (specific activity of 91.8 Ci/mmol) for 24 h at 4° C. Rat aortae were subsequently washed in 50 mL of Kreb's buffer and then subjected to the vasoactivity assay. Initial background [^3H]AA release was determined following 30 min of equillibration for each aortic ring prior to treatment by removing 200 μL of Kreb's buffer (total volume of 7 mL each) from each bath, and measuring radioactivity (in cpm) after the addition of 1 mL of scintillant (EcoLume, ICN Inc., Calif.) using a liquid scintillation counter (1209 Rackbeta, WALLAC Inc., Md.). Subsequently, aortic rings were treated with sPLA2 alone or Aβ1-40 (1 μM) in the presence or absence of a MEK1/2 inhibitor (PD 98059) or a cPLA2 inhibitor (AACOCF3) for 5 min, or went untreated for the same length of time (control). Quantification of [^3H]AA release was then preformed as described above. All aortic rings were then subjected to a dose range of ET-1 (1, 2.5, and 5 nM), and radioactivity was measured 5 min after the first dose of ET-1 (1 nM), and 20 min after the second (2.5 nM) and third (5 nM) doses of ET-1. Radioactivity incorporated into each ring was determined by placing the aortic ring in 1 mL of scintillant and assaying as described above. Results are expressed as the means ±1 SE of the percentage of [^3H]AA incorporated for each aortic ring [([^3H]AA released—[^3H]AA initial background)/incorporated [^3H]AA].
as §1

[4] = test system: N9 microglial cells; assay: Leukotriene B4 (LTB4) ELISA on microglial cell supernatants; assay type: cell-based, murine; details: 18 hours, FIG. 23
Experimental: Leukotriene -B4 (LTB4) enzyme-linked immunoabsorbant assay (ELISA). Quantitative determination of LTB4 levels was made using a competitive binding ELISA (R&D Systems, Minneapolis, Minn.) designed to measure LTB4 in cell culture supernatants (as described in Paris et al., Exp Neurol 1999). A murine microglial cell line (N9) was provided by Dr. Paola Ricciardi-Castagnoli (Cellular Pharmacology Center, Milan, Italy) and were grown in RPMI medium supplemented with five percent fetal calf serum, 2 mM glutamine, 100 U/mL penicillin, […] streptomycin and 0.05 mM 2-mercaptoethanol. Microglial cells were seeded at 50,000 cells/well in 6-well plates (Falcon, France) and treated with Aβ1-40 (500 nM), drugs which oppose the PLA2/AA/5-LOX/COX-2 pathway, or untreated (control) and incubated for 18 hours. Cell supernatants were then collected and diluted 10-fold in assay buffer. 50 μL of diluted samples were then used in the assay, and each sample was assayed in duplicate. Manipulations were performed in accordance with the manufacturer's instruction. A spectramax 250 spectrophotometer (Molecular Devices, San Diego, USA) was used to measure absorbance at 405 nm and a standard curve was plotted using a 4-parameter model.
as §1

[5] = 25 μM with 1 μM Aβ1-40, FIGS. 5, 16
[6] = 5 μM with 1 μM Aβ1-40, FIGS. 11, 19
[7] = 1 μM with 1 μM Aβ1-40, 5 minutes prior to ET-1, FIGS. 7, 9, 10, 12

pertussis toxin
effect on Aβ vasoactivity ([1]; concentration not given): insensitive

CCCCC/C=C\C/C=C\C/C=C\C/C=C\CCCC(=O)O [AA, Arachidonic acid]
effect on ET-1-induced vasoconstriction ([1]; concentration not given): can enhance ET-1-induced constriction

O=c1c(O)c(-c2ccc(O)c(O)c2)oc2cc(O)cc(O)c12 [Quercetin, quercetin]
effect on Aβ vasoactivity (Aβ1-40 enhancement of ET-1-induced vasoconstriction) ([1]; 10 μM with 1 μM Aβ1-40, FIGS. 8, 14): unable to block Aβ vasoactivity

mastoparan
effect on ET-1-induced vasoconstriction ([1]; 5 μM, 5 minutes prior to ET-1 dose range, FIG. 4): potentiate ET-1-induced vasoconstriction to a similar extent as Aβ

Aβ1-42: soluble β-amyloid peptide with forty-two amino acids, obtained from QCB
magnitude of constriction induced by ET-1 in isolated mammalian vessels ([2]; freshly solubilized, previously shown (Crawford et al., 1998)): increase the magnitude of constriction induced by ET-1

CC(C)NCC(O)COc1cccc2ccccc12 (centres unmarked) [propanolol]
effect on Aβ vasoactivity ([1]; concentration not given): unable to block Aβ vasoactivity

CN(C)CCCn1cc(C2=C(c3c[nH]c4ccccc34)C(=O)NC2=O)c2ccccc21 [bisindolylmaleimide I]
effect on Aβ vasoactivity (Aβ1-40 enhancement of ET-1-induced vasoconstriction) ([1]; 1.5 μM with 1 μM Aβ1-40, FIG. 15): reduction in Aβ vasoactivity was merely additive
effect on ET-1-induced vasoconstriction ([1]; 1.5 μM, 5 minutes prior to ET-1 dose range, FIG. 15): statistically interactive reduction in ET-1-induced vasoconstriction

CC[C@H](C)[C@H](NC(=O)CN)C(=O)NCC(=O)N[C@@H](C)C(=O)N[C@H](C(=O)N[C@@H](CC(C)C)C(=O)N[C@@H](CCCCN)C(=O)N[C@H](C(=O)N[C@@H](CC(C)C)C(=O)N[C@H](C(=O)N[C@H](C(=O)NCC(=O)N[C@@H](CC(C)C)C(=O)N1CCC[C@H]1C(=O)N[C@@H](C)C(=O)N[C@@H](CC(C)C)C(=O)N[C@H](C(=O)N[C@@H](CO)C(=O)N[C@@H](Cc1c[nH]c2ccccc12)C(=O)N[C@H](C(=O)N[C@@H](CCCCN)C(=O)N[C@@H](CCCNC(=N)N)C(=O)N[C@@H](CCCCN)C(=O)N[C@@H](CCCNC(=N)N)C(=O)N[C@@H](CCC(N)=O)C(=O)N[C@@H](CCC(N)=O)C(N)=O)[C@@H](C)CC)[C@@H](C)CC)[C@@H](C)O)[C@@H](C)O)C(C)C)C(C)C [Melittin]
effect on ET-1-induced vasoconstriction ([1]; 1 μM, 5 minutes prior to ET-1 dose range (1-5 nM), FIG. 3): potentiate ET-1-induced vasoconstriction to a similar extent as Aβ

COc1cccc(-c2cc(=O)c3ccccc3o2)c1N [PD 98059]
effect on Aβ vasoactivity (Aβ1-40 enhancement of ET-1-induced vasoconstriction) [1, 5]: complete blockade
effect on Aβ1-42 vasoactivity ([1]; 25 μM with 1 μM Aβ1-42, FIG. 17): complete blockade
effect on sPLA2 enhancement of ET-1-induced vasoconstriction ([1]; 25 μM with 2.5 U/mL sPLA2, FIG. 18): completely inhibit sPLA2 enhancement of ET-1-induced vasoconstriction
effect on Aβ-induced [3H]AA release from aortic rings ([3]; 25 μM with Aβ1-40 1 μM, FIG. 22): blocked
effect on Aβ-induced microglial LTB4 release ([4]; 25 μM with Aβ1-40 500 nM): complete blockade of Aβ-induced microglial LTB4 release

CCCCC/C=C\C/C=C\C/C=C\C/C=C\CCCC(=O)C(F)(F)F [AACOCF3]
effect on Aβ-induced [3H]AA release from aortic rings ([3]; 1 μM with Aβ1-40 1 μM, FIG. 21): inhibited

O[C@@H](CS)[C@@H](O)CS (racemic) [dithiothreithol]
effect on sPLA2-induced vasoconstriction ([1]; concentration not given): inhibition of sPLA2-induced vasoconstriction

Oc1ccc(-c2nc(-c3ccncc3)c(-c3ccc(F)cc3)[nH]2)cc1 [SB 202190]
effect on Aβ vasoactivity (Aβ1-40 enhancement of ET-1-induced vasoconstriction) [1, 6]: complete inhibition of Aβ vasoactivity
effect on Aβ-induced microglial LTB4 release ([4]; 5 μM with Aβ1-40 500 nM): complete blockade of Aβ-induced microglial LTB4 release

diacylglycerol [DAG]
effect on ET-1-induced vasoconstriction ([1]; 10 μM, 5 minutes prior to ET-1 dose range, FIG. 14): able to potentiate ET-1-induced vasoconstriction

APP657-676: APP-derived peptide, a known stimulator of Go (EFRHDSGYEVHHQKLVFFAE; UniProt P05067 674-693, looked up, fragment)
effect on Aβ vasoactivity ([1]; concentration not given): not able to modulate ET-1-induced vasoconstriction or to affect Aβ-vasoactivity
effect on ET-1-induced vasoconstriction ([1]; concentration not given): not able to modulate ET-1-induced vasoconstriction

Nc1ncnc2c1ncn2C1CCCO1 (centres unmarked) [SQ-22536]
effect on Aβ vasoactivity ([2]; adenylyl cyclase inhibitor, reference given): does not have any effect on the vasoactive properties of Aβ

O=C1O/C(=C/Br)CCC1c1cccc2ccccc12 (centres unmarked) [HELSS, haloenol lactone suicide substrate]
effect on Aβ vasoactivity (Aβ1-40 enhancement of ET-1-induced vasoconstriction) [1, 7]: unable to affect Aβ-induced vasoactivity

p-aminophenyl-α-D-mannopyranoside-bovine serum albumin [mannose-BSA]
effect on ET-1-induced vasoconstriction [1]: vasoactive to a similar extent as Aβ

CCCCCCCC/C=C\CCCCCCCCOCCOP(=O)([O-])OCC[N+](C)(C)C [oleylox., oleyloxyethylphosphocholine]
effect on Aβ vasoactivity (Aβ1-40 enhancement of ET-1-induced vasoconstriction) [1, 7]: completely blocks
effect on Aβ1-42 vasoactivity ([1]; 1 μM with Aβ1-42): completely blocks
effect on sPLA2-induced vasoconstriction ([1]; concentration not given): inhibition of sPLA2-induced vasoconstriction

isotetrandrine
effect on Aβ vasoactivity (Aβ1-40 enhancement of ET-1-induced vasoconstriction) [1, 5]: partially blocked Aβ vasoactivity

CS(=O)(=O)Nc1ccc([N+](=O)[O-])cc1OC1CCCCC1 [NS-398]
effect on Aβ vasoactivity (Aβ1-40 enhancement of ET-1-induced vasoconstriction) [1, 6]: able to block Aβ vasoactivity
effect on Aβ-induced microglial LTB4 release ([4]; 50 μM with Aβ1-40 500 nM): complete blockade of LTB4 release

COc1cccc2c1cc([N+](=O)[O-])c1c(C(=O)O)cc3c(c12)OCO3 [aristolochic acid]
effect on Aβ vasoactivity ([1]; high doses (25 μM)): partial blockade of the vasoactive properties of Aβ
effect on Aβ vasoactivity ([1]; low doses (<10 μM)): unable to affect Aβ vasoactivity

O=C(NCCCCCCNC(=O)ON=C1CCCCC1)ON=C1CCCCC1 [RHC-80267]
effect on Aβ vasoactivity (Aβ1-40 enhancement of ET-1-induced vasoconstriction) ([1]; 8 μM with 1 μM Aβ1-40, FIG. 13): not able to modulate ET-1-induced vasoconstriction or to affect Aβ enhancement of ET-1-induced vasoconstriction
effect on ET-1-induced vasoconstriction ([1]; 8 μM, 5 minutes prior to ET-1 dose range, FIG. 13): not able to modulate ET-1-induced vasoconstriction

CC(C)c1ccc2c(c1)c(SC(C)(C)C)c(CC(C)(C)C(=O)O)n2Cc1ccc(Cl)cc1 [MK-886]
effect on Aβ vasoactivity (Aβ1-40 enhancement of ET-1-induced vasoconstriction) [1, 7]: markedly inhibits Aβ vasoactivity
